The results in this text go back to US20250346584A1, “NOVEL KAPPA OPIOID LIGANDS” (The Scripps Research Institute, priority 2012, published 2025).

SMILES strings stand for the structures.

kappa opioid receptor (OPRK1), sequence (P41145 whole entry): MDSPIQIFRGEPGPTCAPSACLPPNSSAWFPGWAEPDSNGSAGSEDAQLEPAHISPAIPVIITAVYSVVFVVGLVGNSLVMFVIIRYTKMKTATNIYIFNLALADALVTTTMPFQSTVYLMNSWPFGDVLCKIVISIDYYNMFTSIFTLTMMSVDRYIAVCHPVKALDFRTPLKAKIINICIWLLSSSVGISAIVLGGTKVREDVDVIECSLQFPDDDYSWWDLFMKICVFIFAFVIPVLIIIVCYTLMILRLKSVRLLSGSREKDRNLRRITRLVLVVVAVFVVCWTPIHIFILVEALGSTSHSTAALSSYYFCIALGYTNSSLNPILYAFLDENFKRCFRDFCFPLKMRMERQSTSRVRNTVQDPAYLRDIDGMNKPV

The first assay concerns the target kappa opioid receptor (OPRK1) (Homo sapiens (Human), UniProt P41145). The assay can be described thus: OPRK1 antagonist assay (b-arrestin-2-TEV / b-lactamase reporter cell line, EC80 U-50488 challenge). Type of assay: cell-based. As to conditions: % inhibition at the concentration given.
`CCOC(=O)c1c(Cl)cc(C)nc1N1CCC(N[C@@H]2CCCC[C@H]2O)CC1` [compound 2]: the “% inhib if other than 50%” value came out at 65%.

The assay is the same for the next values; noted with them: read-out: IC50 nM (% inhib if other than 50%); antagonist mode vs EC80 U-50488; NA = not active at concentrations up to 10 μM.
For `COC1CN(c2nc3ccc(C)cc3cc2-c2nc(C)no2)CCC1NC1CCCC1` (centres unmarked) [compound 309], the IC50 was found to be 0.5 nM. In the case of `Cc1nc(-c2cc3ccc(F)c(C)c3nc2N2CCC(NCC(C)C)CC2)no1` [compound 505], the IC50 came out at 126 nM.

On to `CCOC(=O)c1noc(-c2cc3cc(C)ccc3nc2N2CCC(NC3CCCCC3)C(CO)C2)n1` (centres unmarked) [C91], for which the IC50 was found to be 17700 nM.

`COC(=O)c1cc([N+](=O)[O-])cnc1N1CCC(NC2CCCCC2)C(O)C1` (centres unmarked) [compound 98]: the IC50 was 1100 nM.

Take `Cc1ccc2nc(N3CCC(NC4CCC(C)CC4)CC3)c(-c3nc(C)no3)cc2c1` (centres unmarked) [compound 350]: the IC50 amounted to 0.97 nM. Same read-out and setting: the same measure for `Cc1ccc2nc(N3CCC(NCC4CCCCC4)CC3)c(-c3nc(C)no3)cc2c1` [compound 261]: 1470 nM; for `Cc1ccc2nc(N3CCC(N(C)C4CCOCC4)CC3)c(-c3nc(C)no3)cc2c1` [compound 267]: 180 nM. The same measure, in the same setting: the same measure for `COC(=O)c1cc(Br)cnc1N1CCC(NC2CCCCC2)C1` (centres unmarked) [compound 14]: 185 nM.

For `Cc1noc(-c2cc3c(nc2N2CCC(NC4CCCCC4)C(CO)C2)CCC3)n1` (centres unmarked) [compound 211], the IC50 worked out at 74 nM. The same measure, in the same setting: the same measure for `CO[C@H]1CN(c2nc(C)c(C)cc2-c2nc(C)no2)CC[C@H]1NC1CCCCC1` [compound 300]: 16 nM; for `Cc1noc(-c2cnc(N3CC[C@@H](NC4CCCCC4)[C@H](O)C3)c(C)c2)n1` [compound 177]: above 20 nM; for `CCOC(=O)c1cc2cc(C)ccc2nc1N1CCC(NC2CCCCC2)C(OC)C1` (centres unmarked) [compound 281]: 30 nM. On to `COC(=O)c1cc(Br)cnc1N1CCC(NC2CCCCC2C)C(CO)C1` (centres unmarked) [compound 80], for which the IC50 came out at 87 nM.

Regarding `CCOC(=O)c1cc(Br)cnc1N1CCC(NC2CCCCC2)CC1` [compound 38], the IC50 was 128 nM. Same read-out and setting: the same measure for `COC(=O)c1cc(Br)cnc1N1CCC(NC2CC3CCC2(C)C3(C)C)CC1` (centres unmarked) [compound 22]: 10000 nM; for `CCOC(=O)c1cc(C(=O)OC)c(C)nc1N1CCC(NC2CCCCC2)C1` (centres unmarked) [compound 104]: 2200 nM; for `COC1CN(c2nc(C)c(C)nc2-c2nc(C)no2)CCC1NC1CCCCC1` (centres unmarked) [compound 390]: 1920 nM. Same read-out and setting: the same measure for `CO[C@@H]1CN(c2ncc(C)cc2C(=O)OC(C)C)CC[C@@H]1NC1CCCCC1` [compound 361]: 1440 nM.

Consider `Cc1nc(-c2cc3ccc(F)c(C)c3nc2N2CCC(NC3CCCC3)CC2)no1` [compound 504], for which the IC50 amounted to 45 nM.

On to `CCc1noc(-c2cc3cc(C)ccc3nc2N2CCC(NC3CCCCCC3)C(OC)C2)n1` (centres unmarked) [compound 313], for which the IC50 was found to be 1.5 nM. The same measure, in the same setting: the same measure for `COC(=O)c1cc(Br)cnc1N1CCC(NC2CCCCC2)CC1C` (centres unmarked) [compound 64]: 901 nM; for `Cc1ccc2nc(N3CCC(NC4COC4)CC3)c(-c3nc(C)no3)cc2c1` [compound 270]: 4470 nM. The same measure, in the same setting: the same measure for `COC1CCCCC1NC1CCN(c2ncc(C)cc2-c2nc(C)no2)CC1CO` (centres unmarked) [compound 196]: 414 nM; for `COC(=O)c1cccnc1N1CCC(NC2CCCCCC2)C(O)C1` (centres unmarked) [compound 55]: 1800 nM. As to `CCc1cnc(N2CC[C@@H](NC3CCCCC3)[C@H](O)C2)c(-c2nc(C)no2)c1` [compound 156], the IC50 is 1000 nM. The same measure, in the same setting: the same measure for `COC1CN(c2nc3ccccc3cc2C2=NC(C)CO2)CCC1NC1CCCCC1` (centres unmarked) [compound 259]: 372 nM; for `O[C@@H]1CN(c2ncc(Br)cc2-c2nc(C3CC3)no2)CC[C@H]1NC1CCCCC1` [compound 150]: 9100 nM. Same read-out and setting: the same measure for `COC(=O)c1cc(I)cnc1N1CCC(NC2CCCCC2OC)C(CO)C1` (centres unmarked) [compound 91]: 198 nM; for `COC(=O)c1cc(Br)cnc1N1CCC(NC2CCCCC2OC)C(CO)C1` (centres unmarked) [compound 82]: 127 nM.

Turning to `Cc1noc(-c2cc(C)c(C)nc2N2CCC(NC3CCCCC3C)C(CO)C2)n1` (centres unmarked) [compound 224], the IC50 is 17 nM. Take `COC(=O)c1cc(C)cnc1N1CC[C@@H](NC2CCCCC2)[C@H](O)C1` [compound 128]: the IC50 worked out at 35 nM. Turning to `Cc1noc(-c2cc3cc(F)ccc3nc2N2CCC(NC3CCOCC3)CC2)n1` [compound 476], the IC50 came out at 430 nM. Same read-out and setting: the same measure for `CO[C@H]1CN(c2nc3ccc(C)cc3nc2-c2nc(C)no2)CC[C@H]1NC1CCCCC1` [compound 519]: 95 nM; for `COC(=O)c1cccnc1N1CC[C@@H](NC2CCCCC2)[C@H](O)C1` [compound 148]: 5800 nM; for `CCOC(=O)c1nc2cc(C)ccc2nc1N1CCC(NC2CCCCC2)C(OC)C1` (centres unmarked) [compound 353]: 23 nM. On the same count and under the same terms, the same measure for `Cc1noc(-c2cc3ccccc3nc2N2CCC(NC3CCOCC3)C(CO)C2)n1` (centres unmarked) [compound 198]: 98 nM; for `CCOC(=O)c1cc(Cl)cnc1N1CCC(NC2CCCCC2)C(CO)C1` (centres unmarked) [compound 71]: 93 nM; for `Cc1noc(-c2cc3c(F)cccc3nc2N2CCC(NC3CCOCC3)CC2)n1` [compound 477]: 42 nM.

Regarding `COC1CN(c2ncc(C)cc2-c2nc(C)no2)CCC1NC1CCOCC1` (centres unmarked) [compound 320], the IC50 worked out at 170 nM. Regarding `COC1CN(c2nc3ccc(C)cc3cc2-c2noc(C)n2)CCC1NCC(C)C` (centres unmarked) [compound 377], the IC50 is 69 nM. On the same count and under the same terms, the same measure for `CC(=O)c1cc(Br)cnc1N1CCC(NC2CCCCC2)C(O)C1` (centres unmarked) [compound 99]: 4500 nM. `Cc1ccc2nc(N3CCC(NC4(C)CCOCC4)CC3)c(-c3nc(C)no3)cc2c1` [compound 271]: the IC50 turned out to be 419 nM. Same read-out and setting: the same measure for `Cc1cnc(-c2cc3ccccc3nc2N2CCC(NC3CCCCC3)CC2)cn1` [compound 466]: 24 nM; for `CO[C@H]1CN(c2nc3ccc(F)cc3cc2-c2nc(C)no2)CC[C@H]1NC1CCCCC1` [compound 296]: 10 nM; for `COC1CN(c2nc3c(cc2-c2nc(C)no2)CCCC3)CCC1NC1CCCCC1` (centres unmarked) [compound 193]: 729 nM. Same read-out and setting: the same measure for `COC1CN(c2nc3ccc(C)cc3cc2C(=O)N(C)C)CCC1NC1CCCCC1` (centres unmarked) [compound 279]: 96 nM.

`CO[C@H]1CN(c2nnc(C)cc2C(=O)OC(C)C)CC[C@H]1NC1CCCCC1` [compound 411]: the IC50 was determined as 10 nM. With `COC(=O)c1cc(Cl)cnc1N1CC[C@H](NC2CCCCC2)[C@@H](O)C1` [compound 111], the IC50 was 281 nM.

For the molecule `CCc1noc(-c2cc3cc(C)ccc3nc2N2CCC(NC3CCOCC3)CC2)n1` [compound 290], the IC50 is 47 nM. On the same count and under the same terms, the same measure for `Cc1noc(-c2cc3ccccc3nc2N2CCC(NC3CCOC3)CC2)n1` (centres unmarked) [compound 236]: 20 nM. Same read-out and setting: the same measure for `Cc1nc(-c2cc3ccc(F)cc3nc2N2CCC(N[C@H]3CCCC[C@@H]3O)CC2)no1` [compound 485]: 673 nM.

Consider `CC(=O)c1cc2cc(C)ccc2nc1N1CCC(NC2CCOCC2)CC1` [compound 478], for which the IC50 is 900 nM. With `Cc1ccc2nc(N3CCC(NC4CCCC(O)C4)CC3)c(-c3nc(C)no3)cc2c1` (centres unmarked) [compound 255], the IC50 is 10 nM. The same measure, in the same setting: the same measure for `CCOC(=O)c1c(Cl)cc(C)nc1N1CCC(N[C@@H]2CCCC[C@H]2O)CC1` [compound 2]: 4500 nM. The same measure, in the same setting: the same measure for `COC1CN(c2nnc(C)cc2C(=O)OC(C)C)CCC1NCC(C)C` (centres unmarked) [compound 408]: 57 nM.

`COC(=O)c1cc(C2CC2)cnc1N1CCC(NC2CCCCC2)C(O)C1` (centres unmarked) [C66]: the IC50 came to 17000 nM. Still for that read-out and setting: the same measure for `COC(=O)c1cc(Br)cnc1N1CC(NC2CCCCC2)C1` [compound 67]: 1400 nM; for `Cc1ccc2nc(N3CCC(NC4CCCCC4)C(CO)C3)c(C(=O)N(C)C)cc2c1` (centres unmarked) [compound 280]: 99 nM; for `Cc1noc(-c2cc3ccccc3nc2N2CC[C@@H](NC3CCCCC3)[C@H](O)C2)n1` [compound 172]: 22 nM. Consider `Cc1noc(-c2cc3ccccc3nc2N2CCC(CO)(NC3CCCCC3)CC2)n1` [compound 222], for which the IC50 came to 163 nM. Still for that read-out and setting: the same measure for `COC(=O)c1cccnc1N1CCC(NC2CCCCC2)C(O)C1` (centres unmarked) [compound 57]: 2200 nM. The same measure, in the same setting: the same measure for `CO[C@H]1CN(c2nc3ccc(C)cc3cc2-c2nc(C)no2)CC[C@H]1NC1CCOCC1` [compound 500]: 423 nM; for `Cc1ccc2nc(N3CCC(NC4CCOCC4)CC3)c(-c3nc(C)no3)nc2c1` [compound 518]: 410 nM; for `COC(=O)c1cc(I)cnc1N1CCC(NC2CCCCC2)C1` (centres unmarked) [compound 35]: 88 nM. For `COC(=O)c1cccnc1N1CCC(NC2CCCCC2)C(CO)C1` (centres unmarked) [compound 149], the IC50 amounted to 5400 nM. The same measure, in the same setting: the same measure for `Cc1ccc2nc(N3CCC(NCC4CC4)CC3)c(-c3noc(C)n3)cc2c1` [compound 434]: 43 nM; for `CO[C@H]1CN(c2nc3c(C)c(F)ccc3cc2-c2nc(C)no2)CC[C@H]1NC1CCCCC1` [compound 487]: 15 nM; for `CCc1noc(-c2cc3cc(C)ccc3nc2N2CCC(NC3CCCCC3)C(OC)C2)n1` (centres unmarked) [compound 283]: 4 nM. Still for that read-out and setting: the same measure for `COC1CN(c2nc3ccccc3nc2-c2nc(C)no2)CCC1NC1CCCCC1` (centres unmarked) [compound 190]: 57 nM; for `COC1CN(c2nc(CO)ccc2-c2nc(C)no2)CCC1NC1CCCCC1` (centres unmarked) [compound 425]: 60 nM; for `Cc1noc(-c2cc3ccccc3nc2N2CCC(NC3CCCOC3)CC2)n1` (centres unmarked) [compound 235]: 4 nM.

As to `Cc1ccc2nc(N3CCC(NC4CCCCC4)C(CO)C3)c(C(=O)OC(C)C)cc2c1` (centres unmarked) [compound 291], the IC50 worked out at 18 nM.

With `COC(=O)c1cc(Br)cnc1N1CCC(NC2CCCCC2OC)C(O)C1` (centres unmarked) [compound 59], the IC50 is 36 nM.

For `COC(=O)c1cc(Br)cnc1N1CCC(NC2CCCCCC2)C(C(=O)OC)C1` (centres unmarked) [compound 115], the IC50 amounted to 1700 nM. Still for that read-out and setting: the same measure for `Cc1cnc(N2CCC(NC3CCCCC3)C(CO)C2)c(C=O)c1` (centres unmarked) [compound 216]: 4500 nM; for `Cc1noc(-c2cc3c(F)cccc3nc2N2CCC(NC3CCCCC3)C(CO)C2)n1` (centres unmarked) [compound 253]: 10 nM.

In general, IC50 refers to the midpoint of a concentration-inhibition curve.
